From patent publication US11236066B2, “Crystalline forms of niraparib tosylate” (Apotex Inc., priority 2019, dated 2022)
Where two headings read alike, the source gives them in different places.

Tests used:
[1] = 900 mL 0.01 N HCl buffer, 50 rpm, sample compressed at 1.5 metric tons for 1 minute
Description: Intrinsic dissolution rate (IDR) measurements were performed using a Wood apparatus. Samples were prepared by compressing the sample at 1.5 metric tons for 1 minute. A dissolution medium consisting of 900 mL 0.01 N HCl buffer, and rotation speed of 50 rpm was used for each experiment.

[2] = 1 g sample, agitated in ball mill 2 hrs at 30 Hz, ambient relative humidity 60%
Description: Samples (1 g) were initially placed in a small glass dish inside a desiccator for 30 minutes. The initial electric field of each sample was then measured with a JCI 140 Static Monitor (John Chubb Instrumentation, England) wherein the height of the field meter from top of the glass dish was 2.5 cm. […] Each sample was then placed in a 20 mL plastic vial and agitated inside of a ball mill (Retsch Mixer Mill MM 301) for 2 hrs at 30 Hz. After the agitation period, each sample was returned to the glass dish and the electric field was measured. The ambient relative humidity during the experiments was 60%.

[3] = cited from earlier work; for Hygroscopicity: description in WO 2018/183354 A1, 4-methylbenzenesulfonate
[4] = CHMP Assessment Report; cited from earlier work

| SMILES | Intrinsic Dissolution Rate [1] [mg min^−1 cm^−2] | Electric Field After Agitation [2] [kV] | Hygroscopicity ([3]; listed as crystalline Form I) | Biopharmaceutics Classification System (BCS) class [4] | Hygroscopicity [3] | Weight gain in DVS ([3]; up to 95% relative humidity (RH)) [%] |
| --- | --- | --- | --- | --- | --- | --- |
| Cc1ccc(S(=O)(=O)O)cc1.NC(=O)c1cccc2cn(-c3ccc([C@@H]4CCCNC4)cc3)nc12 [Niraparib tosylate crystalline Form I, 2-{4-[(3S)-piperidin-3-yl]phenyl}-2H-indazole 7-carboxamide 4-methylbenzenesulfonate] | 0.1451 | 0.50 | non-hygroscopic | Class II |  |  |
| Cc1ccc(S(=O)(=O)O)cc1.NC(=O)c1cccc2cn(-c3ccc([C@@H]4CCCNC4)cc3)nc12 [crystalline Form III, 2-{4-[(3S)-piperidin-3-yl]phenyl}-2H-indazole 7-carboxamide 4-methylbenzenesulfonate] |  |  |  |  | very hygroscopic | 15.8 |
